PubChem BioAssay AID1963830 (Molecular Pharmacology Branch, DTP, NCI, 2024)
Several values for one entry are separate records, joined by “and”; a condition that tells them apart may be missing. Equal entries are not always repeated.

Test system: 922993-354-T-J3-PDC complex spheroid viability
Assay: Anticancer human tumor 922993-354-T-J3-PDC patient-derived endometrial carcinoma cell line growth inhibition [POLQ]
Settings: for viability, T/C: stronger effect = lower value; for IC50: curve of compound
Experimental: Multicellular complex tumor spheroid response to Polymerase (POL) inhibitors (novobiocin, ART-558, RP6685) in combination with a variety of drugs and investigational agents in selected tumor cell lines
The POL inhibitors (novobiocin, ART-558, and RP6685) were evaluated both individually and in combination with standard of care and investigational anticancer small molecules within a complex spheroid model of solid tumors. . Complex spheroids include a stromal component modeled by human endothelial cells (HUVEC) and fibroblasts modeled by human mesenchymal stem cells (MSCs). The concentration ranges selected for each drug and investigational agent were based upon clinically achievable concentrations if the clinical Cmax of the agent was known.
Compounds. The drugs and investigational agents: novobiocin (NSC847541), ART-558 (NSC835418), RP-6685 (NSC848927), peposertib (NSC802822), ceralasertib (NSC780249), elimusertib (NSC800525), camonsertib (NSC841442), AZD-1390 (NSC803789), olaparib (NSC753686), talazoparib (NSC767125), rucaparib (NSC756644), sotorasib (NSC818433), MRTX-1133 (NSC836407), SN-38 (NSC673596), topotecan (NSC609699), epotoside (NSC141540), doxorubicin (NSC123127), gemcitabine (NSC613327), 5-fluorouracil (NSC19893), paclitaxel (NSC125973), vemurafenib (NSC761431), MSA-2 (NSC828583), SN-011 (NSC837082), adavosertib (NSC754352), prexasertib (NSC758257), carboplatin (NSC241240) and oxaliplatin (NSC266046), were obtained from the National Cancer Institute (NCI) Developmental Therapeutics Program Chemical Repository (21). The FDA-approved anticancer drug set is available from the Developmental Therapeutics Program at https://dtp.cancer.gov/organization/dscb/obtaining/. […] The stock solutions were prepared in dimethyl sulfoxide (DMSO, Sigma-Aldrich, St. Louis, MO, cat. D2650), except for the platinum compounds which were prepared in saline (Quality Biological, Gaithersburg, MD, cat. 114-055-101), at 800-fold the tested concentration and stored at -70 degrees C prior to their use. All drugs and investigational agents were tested over a range starting from a high concentration at or near the clinical Cmax and decreasing in half-log increments. If the clinical Cmax for an agent had not been determined, the highest concentration tested was 10 microM, except for SN-38, which was tested at a high concentration of 1 microM.
Cell Culture. All cells were maintained in an incubator at 37 degrees C and 5% CO2 with 95% humidity. The PDC lines were cultured according to standard operating procedures established by the NCI PDMR (https://pdmr.cancer.gov). Table 3 of the manuscript, lists the cell lines along with the number of the three cell types plated to form the mct-spheroids and media for tumor cell growth. After thawing, all PDC lines, except 997537-175-T-J1-PDC and 415267-285-R-J2-PDC, were cultured in Matrigel-coated flasks prepared with a working solution of 1X Ham's F-12 nutrient mix, without supplementation (Thermo Fisher Scientific, cat. 11765054), 100 U/mL penicillin-streptomycin (Thermo Fisher Scientific, cat. 15140122), and 2.5% Matrigel (Corning Inc., Corning, NY, cat. 354248) for the first three passages. The two PDC lines 997537-175-T-J1-PDC and 415267-285-R-J2-PDC were cultured on uncoated flasks. The 857933-349-R-J2-PDC line was cultured in 6C/Colon 1B media containing advanced DMEM/F-12 (Thermo Fisher Scientific, cat. 12634028), 10 mM HEPES (Thermo Fisher Scientific, cat. 15630080), 1X GlutaMAX supplement (Thermo Fisher Scientific, cat. 35050061), 0.1 mg/mL primocin (InvivoGen, San Diego, CA, cat. ant-pm-2), 10% defined fetal bovine serum, heat inactivated (HyClone Laboratories Inc., Logan, UT, cat. SH30070.03HI), 50% L-WRN conditioned media (ATCC, cat. CRL-3276), 1.25 mM N-Acetyl-L-cysteine (Sigma-Aldrich, cat. A9165), 10 mM nicotinamide (Sigma-Aldrich, cat. N0636), 1X B-27 supplement (Thermo Fisher Scientific, cat. 17504044), 1X N-2 supplement (Thermo Fisher Scientific, cat. […]
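Also: spheroids exposed to the agents for one week.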
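For viability, T/C in this document: 100% = DMSO vehicle control wells.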

SMILES | viability, T/C (compound 0.0316 µM) | viability, T/C (compound 0.1 µM) | viability, T/C (compound 0.316 µM) | viability, T/C (compound 1 µM) | viability, T/C (compound 3.16 µM) | viability, T/C (compound 10 µM) | IC50 | viability, T/C (compound 0.00316 µM) | viability, T/C (compound 0.01 µM) | viability, T/C (compound 0.00949 µM) | viability, T/C (compound 0.03 µM) | viability, T/C (compound 0.0949 µM) | viability, T/C (compound 0.3 µM) | viability, T/C (compound 0.949 µM) | viability, T/C (compound 3 µM)
C#Cc1c(F)ccc2cc(O)cc(-c3ncc4c(N5CC6CCC(C5)N6)nc(OCC56CCCN5CC(F)C6)nc4c3F)c12 (centres undefined) | 108% and 107% and 101% | 95.9% and 99.1% and 99.3% | 97.7% and 108% and 93.2% | 110% and 99.2% and 95% | 96% and 102% and 92.8% | 98.1% and 99.6% and 90.1% | > 10000 nM |  |  |  |  |  |  |  | 
C=CC(=O)N1CCN(c2nc(=O)n(-c3c(C)ccnc3C(C)C)c3nc(-c4c(O)cccc4F)c(F)cc23)C(C)C1 (centres undefined) | 107% and 106% and 97.9% | 93.5% and 101% and 94.9% | 96% and 106% and 92.7% | 104% (2×) and 107% | 105% and 104% and 97.4% | 98.8% and 106% and 75% | > 10000 nM |  |  |  |  |  |  |  | 
C=CCn1c(=O)c2cnc(Nc3ccc(N4CCN(C)CC4)cc3)nc2n1-c1cccc(C(C)(C)O)n1 | 88.2% and 102% and 105% | 98.6% and 105% and 101% | 106% and 104% and 103% | 86.5% and 104% and 96% |  |  | > 1000 nM | 99% and 101% and 104% | 102% and 97.2% and 98.6% |  |  |  |  |  | 
CC(=O)O[C@H]1C(=O)[C@@]2(C)[C@H]([C@H](OC(=O)c3ccccc3)[C@]3(O)C[C@H](OC(=O)[C@H](O)[C@@H](NC(=O)c4ccccc4)c4ccccc4)C(C)=C1C3(C)C)[C@]1(OC(C)=O)CO[C@@H]1C[C@@H]2O |  |  |  |  |  |  | > 3000 nM |  |  | 105% and 103% and 101% | 99% and 101% and 96.3% | 99.6% and 106% and 95.9% | 105% (2×) and 108% | 101% and 95.8% and 89.9% | 74.1% and 74.5% and 52%
CC(C)n1c(=O)n(C)c2cnc3cc(F)c(-c4ccc(OCCCN5CCCCC5)nc4)cc3c21 | 109% and 101% and 100% | 103% and 94.2% and 94% | 107% and 99.9% and 97.4% | 99.4% and 95.3% and 105% | 90% and 92.7% and 83.1% | 63.3% and 83% and 68% | > 10000 nM |  |  |  |  |  |  |  | 
CC1COCCN1c1cc(-c2ccnn2C)c2ccnc(-c3ccn[nH]3)c2n1 (centres undefined) | 102% and 89.6% and 107% | 66.9% and 60.1% and 93.3% | 23.1% and 29.1% and 69.8% | 11.8% and 12.8% and 36.8% | 9.13% and 7.87% and 19.7% | 10.8% and 9.87% and 13.7% | 156 nM and 146 nM and 630 nM |  |  |  |  |  |  |  | 
CC1COCCN1c1cc(C2(O)CC3CCC(C2)O3)c2cnn(-c3ccn[nH]3)c2n1 (centres undefined) | 91% and 98.1% and 100% | 90.2% and 88.6% and 96.7% | 54.3% and 58.2% and 96.7% | 25.7% and 28.6% and 63.1% | 9.69% and 10.5% and 42.5% | 10.9% and 8.97% and 19.9% | 399 nM and 441 nM and 2040 nM |  |  |  |  |  |  |  | 
